Source: patent publication US20210169848A1, “USE OF NEUROKININ-1 ANTAGONISTS TO TREAT PRURITUS” (VYNE THERAPEUTICS INC., priority 2018, published 2021)

Columns and labels:
[1] = cited from earlier work
patients with pruritus = assay: Pooled clinical studies, age-related effects of serlopitant (NRS change, NRS 4-point responder rate); type: in vivo, human; conditions: older patients (e.g., 40 years or older) compared with younger patients; pooled 1 mg and 5 mg
Description: Data obtained from the clinical studies described in Examples 6-8 for patients administered 1 mg and 5 mg serlopitant were pooled and evaluated on the basis of the age of the subjects.

[2] = system: subjects with idiopathic pruritus; assay: Phase II randomized, double-blind, placebo-controlled clinical study of serlopitant for chronic pruritus (post hoc WI-NRS 4-point responder analysis); type: in vivo, human; conditions: for WI-NRS 4-point Responder Rate at Week 6: 6 weeks, 3-tablet loading dose Day 1

Structure (SMILES)	thermodynamic stability of polymorph ([1]; Form I relative to Form II of free base serlopitant)	hygroscopicity ([1]; all tested relative humidity conditions)	response to serlopitant therapy as function of age (NRS change from baseline, NRS 4-point Responder Rate) (patients with pruritus)	WI-NRS 4-point Responder Rate at Week 6 ([2]; all patients, 0.25 mg once daily oral)	WI-NRS 4-point Responder Rate at Week 6 ([2]; all patients, 1 mg once daily oral)	WI-NRS 4-point Responder Rate at Week 6 ([2]; all patients, 5 mg once daily oral)	WI-NRS 4-point Responder Rate at Week 6 ([2]; patients with inflammatory skin disease, 0.25 mg once daily oral)	WI-NRS 4-point Responder Rate at Week 6 ([2]; patients with inflammatory skin disease, 1 mg once daily oral)	WI-NRS 4-point Responder Rate at Week 6 ([2]; patients with inflammatory skin disease, 5 mg once daily oral)	response to serlopitant therapy, patients without vs with inflammatory skin disease ([2]; patients without inflammatory skin disease compared with patients with inflammatory skin disease)	WI-NRS 4-point Responder Rate at Week 6 ([2]; patients without inflammatory skin disease, 0.25 mg once daily oral)	WI-NRS 4-point Responder Rate at Week 6 ([2]; patients without inflammatory skin disease, 1 mg once daily oral)	WI-NRS 4-point Responder Rate at Week 6 ([2]; patients without inflammatory skin disease, 5 mg once daily oral)
C[C@@H](O[C@H]1CC[C@@H]2CN(C3=CC(=O)CC3)C[C@H]2[C@@H]1c1ccc(F)cc1)c1cc(C(F)(F)F)cc(C(F)(F)F)c1 [Form I]	thermodynamically more stable below 70 °C	non-hygroscopic											
CC(O[C@H]1CC[C@@H]2CN(C3=CC(=O)CC3)C[C@H]2[C@@H]1c1ccc(F)cc1)c1cc(C(F)(F)F)cc(C(F)(F)F)c1 (stereo partly drawn) [serlopitant, 3-[(3aR,4R,5S,7aS)-5-[(1R)-1-[3,5-bis(trifluoromethyl)phenyl]cthoxy]-4-(4-fluorophenyI)-1,3,3a,4,5,6,7,7a-octahydroisoindol-2-yl]cyclopent-2-en-1-one]			responded better	38.5% (n = 52)	32.7% (n = 55)	46.2% (n = 52)	30.8% (n = 26)	29.6% (n = 27)	33.3% (n = 18)	appeared to respond better	46.2% (n = 26)	35.7% (n = 28)	52.9% (n = 34)
